Test results published in patent publication US6596718B1, “7-Morpholin-4yl-benzothiazole amide derivatives” (Hoffmann-La Roche Inc., priority 2001, dated 2003).

Key:
[1] = molecular target: T1, human adenosine A1 receptor (Homo sapiens, UniProt P30542); assay: [3H]-DPCPX binding assay, human adenosine A1 receptor (SPA, CHO cell membranes); details: recombinant human A1 in CHO membranes; [3H]-DPCPX 0.6 nM; Ki by Cheng-Prussoff; read-out: hA1 (pKi) (converted)
T1 construct: expressed in transfected cells; host or cells: CHO cells, Semliki Forest virus expression system; membrane preparation
T1 sequence (P30542 1-326): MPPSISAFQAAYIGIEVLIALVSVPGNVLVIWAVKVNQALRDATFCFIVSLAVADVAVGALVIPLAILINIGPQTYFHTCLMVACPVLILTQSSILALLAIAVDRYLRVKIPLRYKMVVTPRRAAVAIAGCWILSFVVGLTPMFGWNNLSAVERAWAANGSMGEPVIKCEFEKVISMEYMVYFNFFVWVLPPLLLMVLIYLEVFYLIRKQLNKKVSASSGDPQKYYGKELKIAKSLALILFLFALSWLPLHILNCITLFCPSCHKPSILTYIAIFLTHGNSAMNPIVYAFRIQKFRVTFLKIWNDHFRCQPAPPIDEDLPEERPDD
Protocol: Human Adenosine A1 Receptor
(§1) The human adenosine A1 receptor was recombinantly expressed in chinese hamster ovary (CHO) cells using the semlilki forest virus expression system. Cells were harvested, washed twice by centrifugation, homogenized and again washed by centrifugation. The final washed membrane pellet was suspended in a Tris (50 mM) buffer containing 120 mM NaCl, 5 mM KCl, 2 mM CaCl2 and 10 mM MgCl2 (pH 7.4) (buffer A). The [^3H]-DPCPX (([propyl-^3H]8-cyclopentyl-1,3-dipropyxanthine); 0.6 nM) binding assay was carried out in 96-well plates in the presence of 2.5 μg of membrane protein, 0.5 mg of Ysi-poly-l-lysine SPA beads and 0.1 U adenosine deaminase in a final volume of 200 μl of buffer A. Non-specific binding was defined using xanthine amine congener (XAC; 2 μM). Compounds were tested at 10 concentrations from 10 μM-0.3 nM. All assays were conducted in duplicate and repeated at least two times. Assay plates were incubated for 1 hour at room temperature before centrifugation and then bound ligand determined using a Packard Topcount scintillation counter. IC50, the concentration where 50% of the […] binding is displaced, values were calculated using a non-linear curve fitting program and ki values calculated using the Cheng-Prussoff equation.

[2] = molecular target: T2, human adenosine A2A receptor (Homo sapiens, UniProt P29274); assay: [3H]-SCH-58261 binding assay, human adenosine A2A receptor (SPA, CHO cell membranes); details: recombinant human A2A in CHO membranes; [3H]-SCH-58261 1 nM; Ki by Cheng-Prussoff; read-out: hA2 (pKi) (converted)
T2 construct: expressed in transfected cells; host or cells: CHO cells, Semliki Forest virus expression system; membrane preparation
T2 sequence (P29274 whole entry): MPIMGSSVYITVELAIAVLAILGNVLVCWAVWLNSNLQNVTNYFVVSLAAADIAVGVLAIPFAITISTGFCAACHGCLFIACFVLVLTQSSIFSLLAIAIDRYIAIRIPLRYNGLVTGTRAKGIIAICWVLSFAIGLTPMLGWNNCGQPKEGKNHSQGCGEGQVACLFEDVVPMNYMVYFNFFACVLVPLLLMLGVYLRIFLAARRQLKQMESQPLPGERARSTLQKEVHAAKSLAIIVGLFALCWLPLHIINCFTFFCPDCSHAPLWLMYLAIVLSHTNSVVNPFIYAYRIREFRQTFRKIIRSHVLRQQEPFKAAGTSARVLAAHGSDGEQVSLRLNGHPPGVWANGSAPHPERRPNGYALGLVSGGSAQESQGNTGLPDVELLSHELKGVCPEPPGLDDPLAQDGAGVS
Protocol: Human Adenosine A2A Receptor
as §1, with “adenosine A2A” for “adenosine A1”, “(buffer A)” for “(buffer A).”, “The [^3H]-SCH-58261 (Dionisotti et al., 1997, Br J Pharmacol 121, 353; 1” for “The [^3H]-DPCPX (([propyl-^3H]8-cyclopentyl-1,3-dipropyxanthine); 0.6”, “counter. IC50 values,” for “counter. IC50,”, “displaced,” for “displaced, values”, “and Ki” for “and ki”

SMILES | melting point [°C] | Ki [1] [nM] | Ki [2] [nM]
COc1ccc(N2CCOCC2)c2sc(C(N)=O)nc12 [Example 1, 4-Methoxy-7-morpholin-4-yl-benzothiazole-2-carboxylic Acid Amide] | 228 to 230 | 3980 | 25.1
COc1ccc(N2CCOCC2)c2sc(C(=O)NCCc3ccccc3)nc12 [Example 6, 4-Methoxy-7-morpholin-4-yl benzothiazole-2-carboxylic acid phenethyl-amide] | 50 to 51 | 1260 | 20
COc1ccc(N2CCOCC2)c2sc(C(=O)Nc3cccnc3)nc12 [Example 9, 4-Methoxy-7-morpholin-4-yl-benzothiazole-2-carboxylic acid pyridin-3-ylamide] | 220 to 221 | 3980 | 15.8
COc1ccc(N2CCOCC2)c2sc(C(=O)NCc3ccccn3)nc12 [Example 13, 4-Methoxy-7-morpholin-4-yl-benzothiazole-2-carboxylic acid (pyridin-2-ylmethyl)-amide] | 181 to 182 | 6310 | –
COc1ccc(N2CCOCC2)c2sc(C(=O)NCc3cccc(Cl)c3)nc12 [Example 15, 4-Methoxy-7-morpholin-4-yl-benzothiazole-2-carboxylic acid 3-chloro-benzylamide] | 148 to 150 | 2510 | 20
COc1ccc(N2CCOCC2)c2sc(C(=O)NCc3ccccc3Cl)nc12 [Example 16, 4-Methoxy-7-morpholin-4-yl-benzothiazole-2-carboxylic acid 2-chloro-benzylamide] | 114 to 116 | 3980 | –
COc1ccc(N2CCOCC2)c2sc(C(=O)NCCc3cccs3)nc12 [Example 22, 4-Methoxy-7-morpholin-4-yl-benzothiazole-2-carboxylic acid (2-thiophen-2-yl-ethyl)-amide] | 120 to 121 | 1260 | 3.98
COc1ccccc1CNC(=O)c1nc2c(OC)ccc(N3CCOCC3)c2s1 [Example 25, 4-Methoxy-7-morpholin-4-yl-benzothiazole-2-carboxylic acid 2-methoxy-benzylamide] | 186 to 188 | 7940 | 25.1
COc1ccccc1CCNC(=O)c1nc2c(OC)ccc(N3CCOCC3)c2s1 [Example 49, 4-Methoxy-7-morpholin-4-yl-benzothiazole-2-carboxylic acid [2-(2-methoxy-phenyl)-ethyl]-amide] | 158 to 160 | 1580 | –
COc1ccc(N2CCOCC2)c2sc(C(=O)NCCc3ccsc3)nc12 [Example 54, 4-Methoxy-7-morpholin-4-yl-benzothiazole-2-carboxylic acid (2-thiophen-3-yl-ethyl)-amide] | 137 to 139 | 1260 | 6.31
COc1ccc(N2CCOCC2)c2sc(C(=O)NCCc3cccnc3)nc12 [Example 55, 4-Methoxy-7-morpholin-4-yl-benzothiazole-2-carboxylic acid (2-pyridin-3-yl-ethyl)-amide] | 160 to 163 | 6310 | 25.1
COc1ccc(N2CCOCC2)c2sc(C(=O)NCCc3cccc(F)c3)nc12 [Example 57, 4-Methoxy-7-morpholin-4-yl-benzothiazole-2-carboxylic acid [2-(3-fluoro-phenyl)-ethyl]-amide] | 120 to 122 | 1580 | 20
COc1ccc(N2CCOCC2)c2sc(C(=O)NCCc3ccc(F)cc3)nc12 [Example 59, 4-Methoxy-7-morpholin-4-yl-benzothiazole-2-carboxylic acid [2-(4-fluoro-phenyl)-ethyl]-amide] | 150 to 153 | 6310 | –
COc1ccc(N2CCOCC2)c2sc(C(=O)NCCc3ccc(Cl)cc3)nc12 [Example 62, 4-Methoxy-7-morpholin-4-yl-benzothiazole-2-carboxylic acid [2-(4-chloro-phenyl)-ethyl]-amide] | 153 to 154 | 2000 | –
COc1ccc(N2CCOCC2)c2sc(C(=O)NCCc3ccccc3Cl)nc12 [Example 63, 4-Methoxy-7-morpholin-4-yl-benzothiazole-2-carboxylic acid [2-(2-chloro-phenyl)-ethyl]-amide] | 141 to 143 | 1000 | 20
COc1cccc(CCNC(=O)c2nc3c(OC)ccc(N4CCOCC4)c3s2)c1 [Example 64, 4-Methoxy-7-morpholin-4-yl-benzothiazole-2-carboxylic acid [2-(3-methoxy-phenyl)-ethyl] amide] | 99 to 101 | 1260 | 25.1
COc1ccc(N2CCOCC2)c2sc(C(=O)NCCc3cccc(Cl)c3)nc12 [Example 65, 4-Methoxy-7-morpholin-4-yl-benzothiazole-2-carboxylic acid [2-(3-chloro-phenyl)-ethyl]-amide] | 109 to 111 | 501 | 25.1
COc1ccc(N2CCOCC2)c2sc(C(=O)NCCc3cccc(C)c3)nc12 [Example 71, 4-Methoxy-7-morpholin-4-yl-benzothiazole-2-carboxylic acid (2-m-tolyl-ethyl)-amide] | 119 to 121 | 1260 | 25.1
COc1ccc(N2CCOCC2)c2sc(C(=O)NCC(=O)c3sccc3Cl)nc12 [Example 73, 4-Methoxy-7-morpholin-4-yl-benzothiazole-2-carboxylic acid [2-(3-chloro-thiophen-2-yl)-2-oxo-ethyl]-amide] | 125 to 127 | 1580 | –
COc1ccc(N2CCOCC2)c2sc(C(=O)NC(C)c3nc(C)cs3)nc12 (stereo not drawn) [Example 77, 4-Methoxy-7-morpholin-4-yl-benzothiazole-2-carboxylic acid [1-(4-methyl-thiazol-2-yl)-ethyl]-amide] | 175 to 176 | 501 | 5.01
COc1ccc(N2CCOCC2)c2sc(C(=O)NC(C)Cc3cccs3)nc12 (stereo not drawn) [Example 81, 4-Methoxy-7-morpholin-4-yl-benzothiazole-2-carboxylic acid (1-methyl-2-thiophen-2-yl-ethyl)-amide] | 127 to 129 | 200 | 1.26
